Data taken from patent US6352737B1, “Use of nanoscale sterols and sterol esters” (Cognis Deutschland GmbH, priority 1999, dated 2002).

Tested on: radioactive cholesterol
Assay: Hypocholesterolemic effect: content of radioactive cholesterol in blood of rats after oral gelatine capsule
Type: in vivo
Details: male rats, relative to blank group, mean of 10 animals; for Radioactivity After 3 h: blood 3 h after gelatine capsule (5% by weight sterol/ester, 0.5% by weight radioactively marked cholesterol) via stomach probe; for Radioactivity After 6 h: blood 6 h after gelatine capsule via stomach probe; for Radioactivity After 12 h: blood 12 h after gelatine capsule via stomach probe; for Radioactivity After 24 h: blood 24 h after gelatine capsule via stomach probe; for Radioactivity After 48 h: blood 48 h after gelatine capsule via stomach probe
Protocol: Gelatine capsules (weight ca. 1.5 g) containing 5% by weight β-sitostanol or β-sitostanolester (nanoparticles encapsulated in a gelatine or chitosan matrix and non-nanoscale commercial products) and 0.5% by weight of radioactively marked cholesterol were prepared. To study the hypocholesterolemic effect, male rats (individual weight ca.200 g) were allowed no food overnight. The next day, a size-reduced gelatine capsule was inserted into each test animal via a stomach probe together with a little water containing sodium chloride. After 3, 6, 12, 24 and 48 h, blood was taken from the animals and the content of radioactive cholesterol was determined. The results, which represent the mean value of the measurements of 10 test animals, are set out in Table 2. The figures relating to the reduction in radioactivity are based on a blank group of test animals which were only given gelatine capsules containing 20% by weight of vitamin E and a corresponding quantity of radioactively marked cholesterol. Examples 1 and 2 correspond to the invention, Examples C1 and C2 are intended for comparison.

Row | Structure (SMILES) | Radioactivity After 3 h [%-rel.] | Radioactivity After 6 h [%-rel.] | Radioactivity After 12 h [%-rel.] | Radioactivity After 24 h [%-rel.] | Radioactivity After 48 h [%-rel.]
1 | CCCCCCCCCCCCCCCCCC(=O)O[C@H]1CC[C@@]2(C)[C@@H](CC[C@@H]3[C@@H]2CC[C@]2(C)[C@@H]([C@H](C)CC[C@@H](CC)C(C)C)CC[C@@H]32)C1 [Example C2, β-Sitostanyl stearate] | 90 | 80 | 71 | 44 | 26
2 | CC[C@H](CC[C@@H](C)[C@H]1CC[C@H]2[C@@H]3CC[C@H]4C[C@@H](O)CC[C@]4(C)[C@H]3CC[C@]12C)C(C)C [Example C1, β-Sitostanol] | 93 | 83 | 75 | 50 | 32
